Positions of bridges follow the written chain, without caps; N, C: chain ends. Residues, ends and D or L forms follow the SMILES beside them.
Assays:
[1] = biological target: T1, intestinal guanylate cyclase (Homo sapiens, UniProt P25092); experiment: Cyclic GMP determination in T84 cells (bioassay); assay type: cell-based
T1 construct: Monolayers of T84 cells in 24-well plates were washed twice; host or cells: T84 human colon carcinoma cells

proximal colon = conditions: read-out: EC50 for increase in Isc (X±S.E.); mucosal (luminal) addition, rat proximal colon, n=4 animals

T1 sequence (P25092 24-1073): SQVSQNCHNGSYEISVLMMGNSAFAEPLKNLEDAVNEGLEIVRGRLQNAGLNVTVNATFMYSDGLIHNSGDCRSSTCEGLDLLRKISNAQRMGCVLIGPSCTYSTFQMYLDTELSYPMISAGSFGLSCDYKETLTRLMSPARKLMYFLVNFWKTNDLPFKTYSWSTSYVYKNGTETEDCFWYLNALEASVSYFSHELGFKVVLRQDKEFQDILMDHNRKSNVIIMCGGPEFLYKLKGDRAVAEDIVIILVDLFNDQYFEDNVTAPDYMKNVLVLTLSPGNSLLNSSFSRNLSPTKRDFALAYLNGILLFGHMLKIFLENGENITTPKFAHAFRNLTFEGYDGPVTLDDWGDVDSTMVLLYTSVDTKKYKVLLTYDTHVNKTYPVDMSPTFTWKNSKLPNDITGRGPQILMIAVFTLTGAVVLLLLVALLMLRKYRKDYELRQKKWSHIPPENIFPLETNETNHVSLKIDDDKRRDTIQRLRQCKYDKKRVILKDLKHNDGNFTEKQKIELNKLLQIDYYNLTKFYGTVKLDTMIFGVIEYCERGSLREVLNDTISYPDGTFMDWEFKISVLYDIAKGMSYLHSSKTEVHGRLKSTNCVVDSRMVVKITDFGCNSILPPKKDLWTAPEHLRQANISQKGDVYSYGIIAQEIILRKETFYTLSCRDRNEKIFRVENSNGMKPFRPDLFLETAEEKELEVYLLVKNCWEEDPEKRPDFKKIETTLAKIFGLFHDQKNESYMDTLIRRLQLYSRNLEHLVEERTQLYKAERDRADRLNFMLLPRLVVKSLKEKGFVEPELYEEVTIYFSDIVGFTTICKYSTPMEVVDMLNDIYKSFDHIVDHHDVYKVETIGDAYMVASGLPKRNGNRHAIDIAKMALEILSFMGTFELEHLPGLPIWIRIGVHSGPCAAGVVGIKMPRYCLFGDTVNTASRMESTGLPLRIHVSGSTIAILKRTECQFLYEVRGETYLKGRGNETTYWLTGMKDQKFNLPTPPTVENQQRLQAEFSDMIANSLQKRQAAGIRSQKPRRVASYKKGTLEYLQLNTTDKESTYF

SMILES: O[C@H](CS)[C@H](O)CS (racemic) [DTT, dithiothreitol]
- effect on responsiveness of the cells ([1]; T84 cells treated with 10 μM): failed to affect their responsiveness

SMILES: CC[C@H](C)[C@@H]1NC(=O)[C@H](CCCNC(=N)N)NC(=O)[C@H](CC(=O)O)NC(=O)[C@H](CCSC)NC(=O)[C@H](CCCNC(=N)N)NC(=O)CNC(=O)CNC(=O)[C@H](Cc2ccccc2)NC(=O)[C@@H](NC(=O)[C@H](CO)NC(=O)[C@H](CO)NC(=O)[C@H](CCCNC(=N)N)NC(=O)[C@H](CCCNC(=N)N)NC(=O)[C@H](CC(C)C)NC(=O)[C@@H](N)CO)CSSC[C@@H](C(=O)N[C@@H](CC(N)=O)C(=O)N[C@@H](CO)C(=O)N[C@@H](Cc2ccccc2)C(=O)N[C@@H](CCCNC(=N)N)C(=O)N[C@@H](Cc2ccc(O)cc2)C(=O)O)NC(=O)CNC(=O)[C@H](CC(C)C)NC(=O)CNC(=O)[C@H](CO)NC(=O)[C@H](CCC(N)=O)NC(=O)[C@H](C)NC(=O)CNC1=O [atrial natriuretic peptide]
- effect on cyclic GMP levels [1]: not detected

SMILES: CC[C@H](C)[C@@H]1NC(=O)[C@H](CCC(=O)O)NC(=O)[C@@H](NC(=O)[C@@H](NC(=O)[C@H](CC(N)=O)NC(=O)[C@@H]2CCCN2)[C@@H](C)O)CSSC[C@@H]2NC(=O)[C@H](C)NC(=O)[C@H](C)NC(=O)[C@H](Cc3ccc(O)cc3)NC(=O)[C@H](C)NC(=O)[C@H](CSSC[C@@H](C(=O)O)NC(=O)CNC(=O)[C@H]([C@@H](C)O)NC2=O)NC1=O [guanylin] (H-PNTCEICAYAACTGC-OH; disulfide 4-12, 7-15)
- EC50 (proximal colon): 162 ± 26 nM

Source: patent publication US5140102A, “Pentadecapeptide, guanylin, which stimulates intestinal guanylate cyclase” (Monsanto Company, priority 1991, dated 1992)
